Where “and” joins values, the source holds several entries; their conditions need not be identical. Identical values can stand only once. Entries after “also recorded” stand apart in the source; their conditions may differ. Like-named read-outs stand apart in the source and are kept apart here. One block for each compound: values may come before it.
Tests used:
h5-HT5A = h5-HT5A (Homo sapiens, UniProt P47898); assay: Radioligand binding assay, h5-HT5A; settings: read-out: Affinity [ki (nM)]
h5-HT2B = h5-HT2B (Homo sapiens, UniProt P41595); assay: Radioligand binding assay, h5-HT2B
h5-HT6 = h5-HT6 (Homo sapiens, UniProt P50406); assay: Radioligand binding assay, h5-HT6
h5-HT1A = biological target: T1, h5-HT1A (Homo sapiens, UniProt P08908); assay: Radioligand binding assay, h5-HT1A
T1 sequence (P08908 1-422): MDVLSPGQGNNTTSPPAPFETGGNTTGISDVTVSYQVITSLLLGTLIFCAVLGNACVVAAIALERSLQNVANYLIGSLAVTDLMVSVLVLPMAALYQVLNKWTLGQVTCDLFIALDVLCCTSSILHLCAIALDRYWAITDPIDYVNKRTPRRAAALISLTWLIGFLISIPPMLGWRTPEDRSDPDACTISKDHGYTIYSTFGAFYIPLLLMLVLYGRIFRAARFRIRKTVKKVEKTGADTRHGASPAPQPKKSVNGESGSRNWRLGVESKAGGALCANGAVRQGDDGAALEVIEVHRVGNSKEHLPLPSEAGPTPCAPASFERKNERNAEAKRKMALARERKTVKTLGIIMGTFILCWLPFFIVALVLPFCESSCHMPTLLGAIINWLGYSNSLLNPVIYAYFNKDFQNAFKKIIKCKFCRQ

h5-HT3 = biological target: T2, h5-HT3 (Homo sapiens, UniProt P46098); assay: Radioligand binding assay, h5-HT3; settings: read-out: Affinity [ki (nM)]
T2 sequence (P46098 24-478): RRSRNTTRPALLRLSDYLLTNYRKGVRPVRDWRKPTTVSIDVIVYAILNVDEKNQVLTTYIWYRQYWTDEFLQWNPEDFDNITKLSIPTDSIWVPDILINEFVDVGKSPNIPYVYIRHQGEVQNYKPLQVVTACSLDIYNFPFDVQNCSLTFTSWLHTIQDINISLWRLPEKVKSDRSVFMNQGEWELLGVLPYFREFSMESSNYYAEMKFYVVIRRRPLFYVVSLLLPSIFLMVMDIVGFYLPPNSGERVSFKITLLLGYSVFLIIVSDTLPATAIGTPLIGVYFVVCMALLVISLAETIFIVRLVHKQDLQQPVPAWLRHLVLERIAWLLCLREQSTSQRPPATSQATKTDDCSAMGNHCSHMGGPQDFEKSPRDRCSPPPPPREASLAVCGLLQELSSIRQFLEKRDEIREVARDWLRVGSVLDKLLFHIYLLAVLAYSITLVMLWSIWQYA
Procedure: (§1) Binding affinities were determined in radioligand binding assays according to their standard assays protocols. In case 1, the assays included in the LeadProfilingScreen package plus 5-HT1 non-selective, 5-HT2 non-selective, 5-HT2B, 5-HT2C, 5-HT4, 5-HT5A, 5-HT6 and 5-HT7 were performed. In case 2, assays included in the High-throughput profile plus 5-HT1D, 5-HT2B, 5-HT4e were performed. For AS-19 further assays were carried out to complete its selectivity profile for serotonin receptors, including 5-HT1B, 5-HT1D, 5-HT2A and 5-HT4a.

gp5-HT4 = gp5-HT4 (Cavia porcellus, UniProt O70528); assay: Radioligand binding assay, gp5-HT4; parameters: species or system guinea pig; settings: read-out: Affinity [ki (nM)]
Procedure: as §1

[1] = tested on: capsaicin-induced mechanical allodynia; assay: Capsaicin test, antiallodynic protocol (1 μg capsaicin, 1 g von Frey filament); settings: for dose at which the antiallodynic effect reached the maximum: s.c.
h5-HT7 = h5-HT7 (Homo sapiens, UniProt P34969); assay: biochemical; settings: Affinity [ki (nM)]
5-HT7 receptors [2] = biological target: T3, 5-HT7 receptors (Homo sapiens, UniProt P34969); assay: cAMP measurement (HTRF) in HEK-293F cells stably expressing human 5-HT7 receptors; type: cell-based; parameters: expressed in transfected cells; host or cells: HEK-293F; settings: for EC50: HEK-293F cells, human 5-HT7, mean ± SEM
h5-HT2C = h5-HT2C (Homo sapiens, UniProt P28335); assay: Radioligand binding assay, h5-HT2C
[3] = tested on: thermal hyperalgesia induced by partial sciatic nerve ligation; assay: Partial sciatic nerve ligation, plantar test (thermal hyperalgesia)
[4] = tested on: mechanical allodynia induced by partial sciatic nerve ligation; assay: Partial sciatic nerve ligation, von Frey test (mechanical allodynia); type: in vivo, mice; settings: for effect on mechanical allodynia (von Frey pressure threshold), nerve-injured mice: days 11-13 post-injury
Description: Mechanical allodynia was quantified by measuring the tactile threshold for hind paw withdrawal following von Frey filament stimulation. […] The filament exerted an increasing upward pressure on the plantar surface. The pressure increased linearly with time (0.1 g/s; from 0 to 5 g in 50 s) until the mouse withdrew its paw. […] A cut-off threshold of 5 g (50 s) was imposed.
The filament of 0.4 g was first used. […] This up-down procedure was stopped four measures after the first change in animal responding and the threshold of response was calculated. Clear paw withdrawal, shaking was considered as a nociceptive-like response.

[5] = tested on: infraorbital nerve-ligatured rats; assay: Chronic constriction injury of the infraorbital nerve (CCI-ION), von Frey filaments
h5-HT2A = h5-HT2A (Homo sapiens, UniProt P28223); assay: Radioligand binding assay, h5-HT2A; settings: read-out: Affinity [ki (nM)]
[6] = tested on: sciatic nerve-ligatured rats; assay: Chronic constriction injury of the sciatic nerve (CCI-SN), Randall-Sellito test
[7] = tested on: capsaicin-induced mechanical allodynia; assay: Capsaicin test, proallodynic protocol (4 ng capsaicin, 0.25 g von Frey filament); type: in vivo, mice; settings: 10 mg/Kg s.c., 0.25 g pressure
Procedure: Alternatively, in some experiments, only 4 ng (instead of 1 μg) of capsaicin were injected into the paw and the pressure exerted by the filament was reduced to 0.25 g (instead of 1 g). […] This approach was used to test the possibility that treatments could exert a proallodynic effect. The FIG. 1 summarizes the two different experimental approaches carried out in this study.

h5-HT1F = biological target: T4, h5-HT1F (Homo sapiens, UniProt P30939); assay: Radioligand binding assay, h5-HT1F; settings: read-out: Affinity [ki (nM)]
T4 sequence (P30939 1-366): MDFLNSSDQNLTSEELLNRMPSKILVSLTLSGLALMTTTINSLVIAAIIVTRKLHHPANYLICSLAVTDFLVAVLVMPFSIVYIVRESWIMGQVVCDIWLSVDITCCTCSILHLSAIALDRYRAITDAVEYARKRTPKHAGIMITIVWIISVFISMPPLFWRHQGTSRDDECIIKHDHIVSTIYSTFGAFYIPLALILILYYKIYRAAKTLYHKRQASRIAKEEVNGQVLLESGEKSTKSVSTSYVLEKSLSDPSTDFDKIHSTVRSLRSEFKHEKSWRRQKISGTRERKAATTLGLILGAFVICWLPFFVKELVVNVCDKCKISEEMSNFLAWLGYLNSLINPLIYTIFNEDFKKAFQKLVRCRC

5-HT7 receptors [8] = biological target: T3, 5-HT7 receptors; settings: Mahe et al., 2004; Romero et al., 2006; cited from earlier work
5-HT1A = settings: Foster et al., 1995; cited from earlier work

T3 sequence (P34969 whole entry): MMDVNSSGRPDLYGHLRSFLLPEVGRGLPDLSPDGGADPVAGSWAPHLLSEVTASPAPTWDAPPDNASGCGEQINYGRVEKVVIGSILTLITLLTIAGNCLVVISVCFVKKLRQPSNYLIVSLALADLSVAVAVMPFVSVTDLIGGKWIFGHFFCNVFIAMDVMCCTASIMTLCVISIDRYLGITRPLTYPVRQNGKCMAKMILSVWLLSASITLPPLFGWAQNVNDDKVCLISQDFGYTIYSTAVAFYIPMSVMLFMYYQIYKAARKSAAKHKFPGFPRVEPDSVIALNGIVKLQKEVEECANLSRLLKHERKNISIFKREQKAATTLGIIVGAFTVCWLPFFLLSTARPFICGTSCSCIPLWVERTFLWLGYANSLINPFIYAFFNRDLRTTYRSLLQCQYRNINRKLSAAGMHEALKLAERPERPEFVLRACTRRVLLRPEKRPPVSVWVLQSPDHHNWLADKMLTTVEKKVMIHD
Chain of h5-HT7 (P34969 whole entry): as above
Chain of h5-HT2C (P28335 33-458): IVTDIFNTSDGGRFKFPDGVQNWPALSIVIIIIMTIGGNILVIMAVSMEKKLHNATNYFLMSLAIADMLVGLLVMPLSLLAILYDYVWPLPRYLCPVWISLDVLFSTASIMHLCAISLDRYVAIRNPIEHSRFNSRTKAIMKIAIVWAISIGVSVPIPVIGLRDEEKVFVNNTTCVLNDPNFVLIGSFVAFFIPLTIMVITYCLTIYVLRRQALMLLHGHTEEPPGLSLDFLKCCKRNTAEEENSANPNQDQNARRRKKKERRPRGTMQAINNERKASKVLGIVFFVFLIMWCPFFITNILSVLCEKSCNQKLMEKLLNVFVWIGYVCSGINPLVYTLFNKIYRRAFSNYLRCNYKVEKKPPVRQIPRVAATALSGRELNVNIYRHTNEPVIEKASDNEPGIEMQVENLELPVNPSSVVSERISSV
Chain of h5-HT2A (P28223 whole entry): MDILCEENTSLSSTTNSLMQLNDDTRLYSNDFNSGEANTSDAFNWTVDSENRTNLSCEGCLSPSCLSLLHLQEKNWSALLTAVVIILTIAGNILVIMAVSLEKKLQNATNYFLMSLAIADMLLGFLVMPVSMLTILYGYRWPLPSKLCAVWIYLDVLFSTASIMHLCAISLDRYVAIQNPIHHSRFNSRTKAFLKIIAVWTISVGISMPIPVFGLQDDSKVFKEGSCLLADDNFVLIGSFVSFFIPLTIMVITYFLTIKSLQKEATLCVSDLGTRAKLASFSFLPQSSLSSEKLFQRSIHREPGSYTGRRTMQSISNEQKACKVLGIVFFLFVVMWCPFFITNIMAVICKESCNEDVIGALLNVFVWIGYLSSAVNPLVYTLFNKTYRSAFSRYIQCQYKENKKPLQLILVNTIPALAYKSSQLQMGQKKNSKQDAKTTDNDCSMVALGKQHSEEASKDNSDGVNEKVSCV
Chain of gp5-HT4 (O70528 whole entry): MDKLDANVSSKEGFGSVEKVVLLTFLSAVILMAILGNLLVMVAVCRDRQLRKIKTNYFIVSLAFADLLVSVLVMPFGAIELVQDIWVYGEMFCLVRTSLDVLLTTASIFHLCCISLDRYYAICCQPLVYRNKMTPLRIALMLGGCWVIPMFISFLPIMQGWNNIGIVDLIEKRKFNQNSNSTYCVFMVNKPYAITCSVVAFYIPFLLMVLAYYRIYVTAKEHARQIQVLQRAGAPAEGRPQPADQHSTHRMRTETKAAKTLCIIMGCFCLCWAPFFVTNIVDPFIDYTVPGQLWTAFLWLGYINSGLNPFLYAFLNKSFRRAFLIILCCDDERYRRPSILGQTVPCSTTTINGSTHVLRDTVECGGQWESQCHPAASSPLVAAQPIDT
Chain of h5-HT2B (P41595 whole entry): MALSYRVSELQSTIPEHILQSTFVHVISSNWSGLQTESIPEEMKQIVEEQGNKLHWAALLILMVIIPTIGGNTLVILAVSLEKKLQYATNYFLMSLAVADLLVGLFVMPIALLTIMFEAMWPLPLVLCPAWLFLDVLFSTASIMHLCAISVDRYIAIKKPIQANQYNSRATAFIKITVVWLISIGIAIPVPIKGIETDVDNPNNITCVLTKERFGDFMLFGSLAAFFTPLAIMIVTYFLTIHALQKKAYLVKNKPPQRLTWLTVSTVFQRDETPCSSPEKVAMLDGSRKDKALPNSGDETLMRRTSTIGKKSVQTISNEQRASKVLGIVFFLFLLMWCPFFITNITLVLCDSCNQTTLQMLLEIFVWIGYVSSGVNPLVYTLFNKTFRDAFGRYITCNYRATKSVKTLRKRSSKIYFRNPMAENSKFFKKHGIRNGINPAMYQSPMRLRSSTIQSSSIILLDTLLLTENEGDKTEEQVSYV
Chain of h5-HT6 (P50406 whole entry): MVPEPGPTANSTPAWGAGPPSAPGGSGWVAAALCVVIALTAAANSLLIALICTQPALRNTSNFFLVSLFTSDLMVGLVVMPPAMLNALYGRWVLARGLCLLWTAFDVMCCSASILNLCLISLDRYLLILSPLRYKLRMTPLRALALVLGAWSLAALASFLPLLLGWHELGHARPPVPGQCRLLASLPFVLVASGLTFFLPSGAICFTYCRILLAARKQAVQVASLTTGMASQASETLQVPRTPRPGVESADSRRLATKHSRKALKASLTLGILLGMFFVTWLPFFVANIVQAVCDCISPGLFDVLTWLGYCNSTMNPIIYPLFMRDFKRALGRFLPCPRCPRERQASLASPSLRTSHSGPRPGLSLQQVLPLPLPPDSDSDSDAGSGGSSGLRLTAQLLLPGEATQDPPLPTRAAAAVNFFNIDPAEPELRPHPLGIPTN
Chain of h5-HT5A (P47898 whole entry): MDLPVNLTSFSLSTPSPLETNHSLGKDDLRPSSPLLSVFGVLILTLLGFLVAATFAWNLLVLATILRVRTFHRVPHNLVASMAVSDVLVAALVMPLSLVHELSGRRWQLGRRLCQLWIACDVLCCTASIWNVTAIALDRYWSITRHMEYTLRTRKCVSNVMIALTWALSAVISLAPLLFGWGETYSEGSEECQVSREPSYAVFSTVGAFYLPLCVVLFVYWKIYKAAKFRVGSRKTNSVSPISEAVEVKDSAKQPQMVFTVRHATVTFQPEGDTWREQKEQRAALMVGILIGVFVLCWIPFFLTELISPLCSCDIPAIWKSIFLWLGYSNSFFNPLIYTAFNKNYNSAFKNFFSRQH

Structure (SMILES): Cc1nn(C)c(C)c1-c1cccc2c1CC[C@H](N(C)C)C2 [AS-19]
Ki (h5-HT5A): 98.5 nM | Ki (h5-HT2B): > 1000 nM | Ki (h5-HT6): > 1000 nM | Ki (h5-HT1A): 89.7 nM | Ki (h5-HT3): > 1000 nM | Ki (gp5-HT4): > 1000 nM | dose at which the antiallodynic effect reached the maximum ([1]; 1 g filament): 10 mg/kg | Ki (h5-HT7): 0.605 nM and 0.6 nM | EC50 (5-HT7 receptors [2]; EC50 (nM), cAMP concentration-response curves): 8.87 ± 0.57 nM | Emax (5-HT7 receptors [2]; HEK293F): 77 ± 2.3% | EC50 (5-HT7 receptors [2]; pEC50, cAMP concentration-response curves): 8.71 nM | Ki (h5-HT2C): > 1000 nM

Structure (SMILES): Cc1ccc(CNCC2(F)CCN(C(=O)c3ccc(F)c(Cl)c3)CC2)nc1 [F-13640, (3-Chloro-4-fluoro-phenyl)-[4-fluoro-4-{[(5-methyl-pyridin-2-ylmethyl)-amino]-methyl}piperidin-1-yl]methanone]
effect on capsaicin-induced mechanical allodynia ([1]; 1 mg/kg s.c., 1 g filament): inhibited

Structure (SMILES): CN(C)CCSc1cccc(-c2ccccc2)n1 [MSD-5a, 2-(6-phenylpyridin-2-ylthio)-N,N-dimethylethanamine]
effect on thermal hyperalgesia (paw withdrawal latency), nerve-injured mice ([3]; 0.3 mg/kg s.c.): did not exert analgesic (antihyperalgesic) effect | effect on thermal hyperalgesia (paw withdrawal latency), nerve-injured mice ([3]; 1 and 3 mg/kg s.c., days 11-13 post-injury): increased the withdrawal latency of nerve-injured paws to levels indistinguishable from control baseline pre-injury values | effect on thermal withdrawal latency in sham-operated mice ([3]; sham-operated, s.c.): had no effects | effect on mechanical allodynia (von Frey pressure threshold), nerve-injured mice ([4]; 0.3 mg/kg s.c.): ineffective | effect on mechanical allodynia (von Frey pressure threshold), nerve-injured mice ([4]; 1 and 3 mg/kg s.c.): significantly inhibited mechanical allodynia; also recorded: restored thresholds of the nociceptive withdrawal response of nerve-injured paws to baseline pre-injury values | persistence of the antiallodynic effect after treatment ([4]; post-treatment thresholds, day 14 post-injury): disappeared the following day after last administration of MSD-5a | effect on nociceptive threshold in sham-operated mice ([4]; sham-operated, s.c., over the doses tested): did not produce any effects | Ki (h5-HT1A; h5-HT1A, read-out: Affinity [ki (nM)]): 16 nM | effect on capsaicin-induced mechanical allodynia (paw withdrawal latency vs vehicle) ([1]; 3, 10 and 30 mg/kg s.c., 1 g filament): increased the latencies of nociceptive paw withdrawal responses | effect on capsaicin-induced mechanical allodynia (paw withdrawal latency) ([1]; mice, 1 g filament, s.c. 30 min before capsaicin, over the doses tested): restored the nociceptive response of capsaicin-sensitized mice to baseline values | dose at which the antiallodynic effect reached the maximum ([1]; 1 g filament): 10 mg/kg | effect on response threshold (mechanical allodynia) in infraorbital nerve-ligatured rats ([5]; s.c., von Frey filaments, ipsilateral vibrissal territory): clearly increased the threshold | Ki (h5-HT2A): 320 nM | effect on mechanical nociceptive thresholds in sciatic nerve-ligatured rats ([6]; s.c., paw withdrawal and vocalization thresholds): clear-cut antihyperalgesic effects

Ki (h5-HT1F): > 1000 nM
Structure (SMILES): CC1CCN(CC[C@H]2CCCN2S(=O)(=O)c2cccc(O)c2)CC1 [SB-269970, (R)-3-(2-(2-(4-Methylpiperidin-1-yl)ethyl)pyrrolidine-1-sulfonyl)phenol]
proallodynic effect (paw withdrawal latency) [7]: allodynia was evidenced | effect on capsaicin-induced mechanical allodynia ([1]; 10 mg/kg s.c., alone, 1 g filament): did not modify paw withdrawal latencies | effect on the antiallodynic effect of AS-19 when co-administered ([1]; SB-269970 10 mg/kg + AS-19 5 mg/kg s.c.): blocked the antiallodynic effect of the agonist | effect on 5a-MSD-induced anti-hyperalgesia/anti-allodynia ([5]; antagonist i.p., 5a-MSD s.c., infraorbital nerve-ligated rats): Blockade | effect on AS 19-induced anti-hyperalgesia/anti-allodynia ([5]; antagonist i.p., AS-19 s.c., infraorbital nerve-ligated rats): Blockade | functionality at 5-HT7 receptor as described (5-HT7 receptors [8]): inverse agonist | effect on AS 19-induced anti-hyperalgesia/anti-allodynia ([6]; antagonist i.p., AS-19 s.c., sciatic nerve-ligated rats): Blockade

Structure (SMILES): COc1ccccc1N1CCN(CCN(C(=O)C2CCCCC2)c2ccccn2)CC1 [WAY-100635, N-(2-(4-(2-methoxyphenyl)-1-piperazinyl)ethyl)-N-(2-pyridinyl)cyclohexane carboxamide]
ID50 for block of 5-HT1A-mediated effects induced by 8-OH-DPAT (5-HT1A): 0.01 mg/kg | effect on capsaicin-induced mechanical allodynia ([1]; 0.1 and 0.3 mg/kg s.c., 1 g filament): unaffected | effect on capsaicin-induced mechanical allodynia ([1]; 0.5 and 1 mg/kg s.c., 1 g filament): significant increase in paw withdrawal latency | effect on the antiallodynic effect of AS-19 when co-administered ([1]; AS-19 at 5 and 10 mg/kg, WAY-100635 0.3 mg/kg or SB-258719 5 mg/kg s.c.): unaffected | effect on the antiallodynic effect of F-13640 when co-administered ([1]; WAY-100635 0.3 mg/kg + F-13640 1 mg/kg s.c.): blocked this antiallodynic effect

— patent US20090326014A1, “Use of 5-ht7 receptor agonists for the treatment of pain” (Laboratorios Del Dr. Esteve, S.A., priority 2006, published 2009)
